Key:
ras = experiment: Oncogene expression after exposure of tumor cells; format: cell-based; details: 72-hour exposure, 10-50 μM
Description: (§1) The observed morphologic changes consistent with a more differentiated phenotype prompted investigation of oncogene expression following exposure to pivaloyloxymethyl butyrate.

c-myc = experiment: Oncogene expression after exposure of tumor cells; format: cell-based; details: 72-hour exposure, 10-50 μM
Description: as §1

p53 = experiment: Oncogene expression after exposure of tumor cells; format: cell-based; details: 72-hour exposure, 10-50 μM
Description: as §1

[1] = system: SK-MES-1 squamous lung cell carcinoma cell; experiment: Crystal violet microtiter assay, Pivanex then cytotoxic drug, SK-MES-1; format: cell-based; details: for SK-MES-1 cancer cell viability (A^490 Absorbance): paclitaxel 0 μM
Description: (§2) T24 Bladder transitional carcinoma cells, Calu-6 anaplastic lung carcinoma cells, and SK-MES-1 squamous lung cell carcinoma cell cultures were purchased from the American Type Culture Collection (Manassas, Va.). All cell lines were cultured in RPMI-1640 with 10% fetal calf serum. For culture in microtiter dishes, cells were plated at a density of 10^4 cells/well and incubated at 37° C., 5% CO2 overnight.
(§3) After overnight incubation, drugs were added to wells in quadruplicate and incubated for 6 to 96 hours in the presence or absence of the oxyalkylene containing compound. […] the media was removed, fresh media were added with cytotoxic drug, and the cultures were incubated for another 6 hours.
(§4) The wells were then washed and medium without drug was added to each well. Microtiter plates were subsequently incubated for an additional 3 days before cell density was determined by a Crystal Violet Assay. Some cultures were alternatively fixed in methanol and stained with hematoxylin and eosin (H&E) stain for 5 minutes prior to microphotography.
(§5) PIVANEX (pivaloyloxymethyl butyrate) was obtained from Titan Pharmaceuticals Inc. (South San Francisco, Calif.) and was admixed with 0.05% Intralipid™ (Fresenius Kabi, Clayton, N.C.) prior to addition to culture media. The cytotoxic drugs gemcitabine (Gemzar; Eli Lilly and Co., Indianapolis, Ind.), cisplatin (Platinol, Bristol-Myers Squibb Co., Princeton, N.J.), paclitaxel (Taxol; Bristol-Myers Squibb Co., Princeton, N.J.), and docetaxel (Taxotere, Aventis Pharmaceuticals Products, Inc., Bridgewater, N.J.) were studied with PIVANEX.
(§6) Cells in microtiter wells were rinsed with PBS and fixed in two volumes of 100% cold methanol for 5 minutes. One volume of 0.5% crystal violet in 20% methanol was added and the attached cells stained for 10 minutes. The cells were then washed and crystal violet was eluted with 0.1 N sodium citrate buffer and read on an ELISA plate reader at 490 nm.

c-Myc oncogene = c-Myc oncogene expression by RT-PCR, Calu-6 cells; format: cell-based; details: for c-Myc oncogene expression: 96 hour exposure, n = 2
Description: as §2, §3
Tumor cell culture mRNA was isolated by standard methods, and RT-PCR was conducted to determine levels of c-Myc oncogene expression. The c-Myc primer pair used for RT-PCR cycling was:
The c-Myc primer pair was cycled by the following program: 95° C. for 3 min., then 30 cycles of (95° C. for 1 min., then 55° C. for 1 min., then 72° C. for 1 min.) followed by holding temperature at 72° C. for 7 min. before ramping temperature to 4° C. Samples were analyzed quantitatively by 1% agarose gel electrophoresis and gel densitometry.

[2] = system: H23 (NCI-H23) NSCLC cell line; experiment: MTS growth inhibition assay, sequencing of Pivanex and docetaxel, H23; format: cell-based, human; details: after 24 hour exposure
Description: Human Non-Small Cell Lung Carcinoma Cell Lines, H522 and NCI-H23, were evaluated for growth inhibitory activity of Pivanex, alone and in combination with the standard chemotherapeutic agent, docetaxel. Cells were treated for three days with Pivanex followed by 24 hours of exposure to docetaxel or the cells were treated for 24 hours with docetaxel followed by three days of exposure to Pivanex. The cell growth inhibition was judged at the end of the 4-day experiments by a standard staining technique using MTS tetrazolium vital stain. […]
Exponentially growing cells were harvested with trypsin (0.05%)/EDTA (0.02%) and re-suspended in fresh medium containing 10% FBS. […] Absorbance was documented on a Dynex HD microplate reader at a wavelength of 490 nm. IC50 values were determined by using the Prism® GraphPad software from 3 different tests, each of which involved 4 replicates for each dose determination. The data are presented as percent growth inhibition, where 0% represents the mean value in wells to which only vehicle (0.1% DMSO) was added and was calculated as follows: % Growth Inhibition=(1−(ODtest/ODvehicle))×100 where ODtest is the optical density of the tested sample, OD vehicle is the optical density of the vehicle in which each respected drug is dissolved.

A549 lung cancer cells = experiment: Pretreatment followed by various chemotherapeutic agents, A549; format: cell-based, human
Description: Human T24 bladder and A549 lung cancer cells were exposed to increasing concentrations of pivaloyloxymethyl butyrate for 6 or 72 hours followed by exposure to various chemotherapeutic agents. […] At higher dosages the increase in cytotoxicity following the sequential regimen would show after a shorter induction period with pivaloyloxymethyl butyrate as discussed above.

[3] = system: Calu-6 anaplastic lung carcinoma cells; experiment: Crystal violet microtiter assay, Pivanex then cytotoxic drug, Calu-6; format: cell-based
Description: as §2, §3, §4, §5, §6

CCCC(=O)OCOC(=O)C(C)(C)C [Pivanex, pivaloyloxymethyl butyrate]
ras expression (ras): significant suppression
c-myc expression (c-myc): significant suppression
p53 expression (p53): significant suppression
SK-MES-1 cancer cell viability (A^490 Absorbance) ([1]; Pivanex 10 μM): 0.743
SK-MES-1 non-small cancer cell viability (A^490 Absorbance) ([1]; Pivanex 25 μM alone): 1.852
SK-MES-1 cancer cell viability (A^490 Absorbance) ([1]; Pivanex 50 μM): 0.769
SK-MES-1 non-small cancer cell viability (A^490 Absorbance) ([1]; Pivanex 100 μM alone): 1.908
SK-MES-1 non-small cancer cell viability (A^490 Absorbance) ([1]; Pivanex 200 μM alone): 1.952
concentrations (as low as) that decreased the expression of c-Myc oncogene (c-Myc oncogene; Calu-6, 96 hours in culture): 10 to 50 µM
c-Myc oncogene expression (c-Myc oncogene; Pivanex 10 μM): 893 PCR units
c-Myc oncogene expression (c-Myc oncogene; Pivanex 25 μM): 743 PCR units
c-Myc oncogene expression (c-Myc oncogene; Pivanex 50 μM): 711 PCR units
c-Myc oncogene expression (c-Myc oncogene; Pivanex 100 μM): 647 PCR units
c-Myc oncogene expression (c-Myc oncogene; Pivanex 200 μM): 460 PCR units
cell growth with agent alone [2]: steep increase in H23 cell growth
enhancement of cytotoxicity of chemotherapeutic agents (A549 lung cancer cells; A549, 6-hour pretreatment, lower doses): did not enhance cytotoxicity
enhancement of cytotoxicity of chemotherapeutic agents (A549 lung cancer cells; A549, 72-hour pretreatment): did enhance drug-induced cytotoxicity
Calu-6 cancer cell viability (A^490 Absorbance) ([3]; Pivanex 10 μM, cisplatin 0 μM): 0.617
Calu-6 cancer cell viability (A^490 Absorbance) ([3]; Pivanex 10 μM, docetaxel 0 nM): 0.732
Calu-6 cancer cell viability (A^490 Absorbance) ([3]; Pivanex 10 μM, gemcitabine 0 nM): 0.617
Calu-6 cancer cell viability (A^490 Absorbance) ([3]; Pivanex 50 μM, cisplatin 0 μM): 0.577
Calu-6 cancer cell viability (A^490 Absorbance) ([3]; Pivanex 50 μM, docetaxel 0 nM): 0.553
Calu-6 cancer cell viability (A^490 Absorbance) ([3]; Pivanex 50 μM, gemcitabine 0 nM): 0.577
Calu-6 cancer cell viability (A^490 Absorbance) ([3]; Pivanex 100 μM, cisplatin 0 μM): 0.284
Calu-6 cancer cell viability (A^490 Absorbance) ([3]; Pivanex 100 μM, gemcitabine 0 nM): 0.284
